Entries after “also recorded” stand apart in the source; their conditions may differ. Square brackets hold non-standard residues; d marks the D form. Peptide text beside a SMILES is read from it. * marks the point of attachment. Sta = CC(C)C[C@H](N)[C@@H](O)CC(=O)O; Isovaleryl = CC(C)CC(=O)*
Key:
[1] = in vivo; cited from earlier work
porcine pepsin A = target: T1, porcine pepsin A (Sus scrofa, UniProt P00791); assay: competitive binding assay, fluorescence polarization with pepstatin-Alexa647; settings: 100 nM probe, 0.03 U/ul porcine pepsin A, 37.5% DMSO, 0.1 M HCl pH 1
T1 construct: purchased Worthington Biochemical Corporation
Protocol: To examine whether HIV protease inhibitors bound and inhibited pepsin, we developed assays based on fluorescence polarization which measures size-dependent molecular rotation thereby permitting detection of degradation, association and dissociation events^80. A competitive binding assay was designed employing pepstatin, an inhibitor of sub-nanomolar affinity^81. Pepstatin-Alexa647 was synthesized by dissolving 1 mg pepstatin A (Sigma-Aldrich) in a 50:50 mixture of dimethylformamide (DMF) and dimethylsulfoxide (DMS) followed by the addition of N,N,N′,N′-Tetramethyl-O—(N-succinimidyl)uronium tetrafluoroborate (0.6 mg) and trimethylamine (10 μL) DMF. The mixture was stirred for 1 hour, after which 1 mg Alexa Fluor 647 Cadaverine, Disodium Salt (ThermoFisher Scientific) was added. After 2 hours, the solvents were evaporated under high vacuum (35° C.) and residue partially dissolved in 10% methanol and transferred onto a C18 cartridge (Waters Corporation, Milford, MA). Increasing percentages of methanol were used for the elution. Pepstatin-Alexa647 eluted at 45% methanol. An enzymatic inhibition assay was designed using casein substrate.^82 Bovine alpha casein (Sigma-Aldrich, St. Louis, MO) was labeled with Alexa Fluor 647 Carboxylic Acid, Succinimidyl Ester (ThermoFisher Scientific, Waltham, MA) as described.^82 Briefly, the two were combined at 2.5 ug/mg label to protein ratio in 0.1M sodium bicarbonate for 15 minutes and labeled casein was separated from unbound label in a Sephadex G-25 (Sigma-Aldrich) column comprised of 90×5 mm packed beads in a glass Pasteur pipette, eluted with dPBS pH7.4 (ThermoFisher Scientific). The fast-moving band (casein-bound fluorophore) was collected in ˜0.4 ml volume. […]
(§1) Assays were optimized using ranges of 0.3-1000 μM unlabeled pepstatin, 100-500 nM pepstatin-Alexa647 or casein-Alexa647 probe, 0.003-3 U/μl porcine pepsin (Worthington Biochemical Corporation, Lakewood, NJ), and 5-37.5% DMSO (HIV protease inhibitor diluent) in 0.1 M HCl, pH 1 with 0.01% v/v Tween-20 in 20 μl volumes in 384-well black optical plates (Nunc, Roskilde, DK) and read on a BioTek Cytation 5 (BioTek Instruments, Winooski, VT) with far red FP filter cube (excitation/emission 620/680 nm). […] Assays were performed twice with triplicate reactions read for five minutes and mean mP plotted against probe concentration (binding assay) or read at <2 minutes intervals over 30 minutes with mean mP of plotted over time (activity assay). Half maximal inhibitory concentration (IC50) of inhibitors were calculated from kinetic traces analyzed using an online tool (https://icekat.herokuapp.com/icekat)^83. mP was normalized to blank (absent inhibitor) to derive percent bound or activity.

porcine pepsin = target: T2, porcine pepsin (Sus scrofa, UniProt P00791); assay: peptic activity assay, fluorescence polarization with casein-Alexa647; type: biochemical; settings: for inhibited pepsin (peptic activity): 200 nM probe, 0.01 U/μL pepsin, 5% DMSO, 0.1 M HCl pH 1
T2 construct: purchased Worthington Biochemical Corporation
Protocol: To examine whether HIV protease inhibitors bound and inhibited pepsin, we developed assays based on fluorescence polarization which measures size-dependent molecular rotation thereby permitting detection of degradation, association and dissociation events^80. A competitive binding assay was designed employing pepstatin, an inhibitor of sub-nanomolar affinity^81. Pepstatin-Alexa647 was synthesized by dissolving 1 mg pepstatin A (Sigma-Aldrich) in a 50:50 mixture of dimethylformamide (DMF) and dimethylsulfoxide (DMS) followed by the addition of N,N,N′,N′-Tetramethyl-O—(N-succinimidyl)uronium tetrafluoroborate (0.6 mg) and trimethylamine (10 μL) DMF. The mixture was stirred for 1 hour, after which 1 mg Alexa Fluor 647 Cadaverine, Disodium Salt (ThermoFisher Scientific) was added. After 2 hours, the solvents were evaporated under high vacuum (35° C.) and residue partially dissolved in 10% methanol and transferred onto a C18 cartridge (Waters Corporation, Milford, MA). Increasing percentages of methanol were used for the elution. […] An enzymatic inhibition assay was designed using casein substrate.^82 Bovine alpha casein (Sigma-Aldrich, St. Louis, MO) was labeled with Alexa Fluor 647 Carboxylic Acid, Succinimidyl Ester (ThermoFisher Scientific, Waltham, MA) as described.^82 Briefly, the two were combined at 2.5 ug/mg label to protein ratio in 0.1M sodium bicarbonate for 15 minutes and labeled casein was separated from unbound label in a Sephadex G-25 (Sigma-Aldrich) column comprised of 90×5 mm packed beads in a glass Pasteur pipette, eluted with dPBS pH7.4 (ThermoFisher Scientific). The fast-moving band (casein-bound fluorophore) was collected in ˜0.4 ml volume. Concentration of resultant probe (casein-Alexa647 in PBS-azide) was estimated via spectrophotometry using Beer's law (Implen Nanophotometer, Implen, Inc. Westlake Village, CA).
as §1, with “nm). Unlabeled pepstatin dose-response curves were used to ensure that the assays were responsive to pepsin inhibition.” for “nm).”

pepsin [2] = settings: cited from earlier work
[3] = test system: patients with HEMII-pH testing-confirmed alkaline LPR; settings: thrice daily post meal with anti-reflux diet; n=48; cited from earlier work
pepsin [4] = settings: cited from earlier work; remark: listed apart in the source
[5] = cited from earlier work

T2 sequence (P00791 60-385): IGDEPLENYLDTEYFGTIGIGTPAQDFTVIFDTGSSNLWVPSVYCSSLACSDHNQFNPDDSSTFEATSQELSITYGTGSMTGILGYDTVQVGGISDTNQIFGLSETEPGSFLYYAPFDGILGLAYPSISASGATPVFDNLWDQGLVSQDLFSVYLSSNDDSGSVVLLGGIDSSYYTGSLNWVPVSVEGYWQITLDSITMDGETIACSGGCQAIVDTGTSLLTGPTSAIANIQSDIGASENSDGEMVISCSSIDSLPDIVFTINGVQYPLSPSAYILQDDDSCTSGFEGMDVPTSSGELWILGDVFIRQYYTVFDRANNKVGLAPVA
T1 sequence (P00791 60-385): as above

In the case of `CC(C)CN(C[C@@H](O)[C@H](Cc1ccccc1)NC(=O)O[C@H]1CCOC1)S(=O)(=O)c1ccc(N)cc1` [amprenavir, [(3S)-oxolan-3-yl] N-[(2S,3R)-4-[(4-aminophenyl)sulfonyl-(2-methylpropyl)amino]-3-hydroxy-1-phenylbutan-2-yl]carbamate], the side effects [1] is given as “minimal side effects (diarrhea, nausea and vomiting)”, the “bound pepsin (competitive binding)” value (porcine pepsin A) is given as “low micromolar” and the “inhibited pepsin (peptic activity)” value (porcine pepsin) is given as “low micromolar”. The IC50 for pepsin (porcine pepsin; in vitro binding and inhibition assays, IC50 from kinetic traces) was “low micromolar range”.

In the case of `CC(C)c1cc2c(cc1S(=O)(=O)O)[C@@]1(C)CCC[C@@](C)(C(=O)O)[C@@H]1CC2` [ecabet sodium], the “effect on pepsin-mediated damage and inflammation” value (pepsin [2]) is given as “abrogate this damage and inflammation”.

For `O.O=S(=O)([O-])[O-].O=S(=O)([O-])[O-].[Al+3].[Al+3].[Al+3].[Al+3].[Al+3].[Mg+2].[Mg+2].[Mg+2].[Mg+2].[Mg+2].[Mg+2].[Mg+2].[Mg+2].[Mg+2].[Mg+2].[OH-].[OH-].[OH-].[OH-].[OH-].[OH-].[OH-].[OH-].[OH-].[OH-].[OH-].[OH-].[OH-].[OH-].[OH-].[OH-].[OH-].[OH-].[OH-].[OH-].[OH-].[OH-].[OH-].[OH-].[OH-].[OH-].[OH-].[OH-].[OH-].[OH-].[OH-]` [magaldrate], the “voice quality (GRBAS dysphonia and roughness, jitter, shimmer, noise to harmonic ratio)” value [3] is given as “improved voice quality”.

For `CC(C)CC(=O)N[C@H](C(=O)N[C@H](C(=O)N[C@@H](CC(C)C)[C@@H](O)CC(=O)N[C@@H](C)C(=O)N[C@@H](CC(C)C)[C@@H](O)CC(=O)O)C(C)C)C(C)C` [pepstatin] (Isovaleryl-VV[Sta]A[Sta]-OH), the “affinity / potency as pepsin inhibitor” value (pepsin [4]) is given as “potent pepsin inhibitor; also recorded: sub-nanomolar”, the water solubility [5] is given as “poor water-solubility; also recorded: poor water-soluble characteristics” and the “effect on pepsin-mediated damage and inflammation” value (pepsin [2]) is given as “abrogate this damage and inflammation”.

For `CC(C)c1nc(CN(C)C(=O)N[C@H](C(=O)N[C@@H](Cc2ccccc2)C[C@H](O)[C@H](Cc2ccccc2)NC(=O)OCc2cncs2)C(C)C)cs1` [ritonavir, 1,3-thiazol-5-ylmethyl N-[(2S,3S,5S)-3-hydroxy-5-[[(2S)-3-methyl-2-[[methyl-[(2-propan-2-yl-1,3-thiazol-4-yl)methyl]carbamoyl]amino]butanoyl]amino]-1,6-diphenylhexan-2-yl]carbamate], the side effects [1] is listed as “minimal side effects (diarrhea, nausea and vomiting)”, the “bound pepsin (competitive binding)” value (porcine pepsin A) is listed as “low micromolar” and the “inhibited pepsin (peptic activity)” value (porcine pepsin) is listed as “low micromolar”.

In the case of anthocyanin, the “effect on pepsin-mediated damage and inflammation” value (pepsin [2]) is given as “abrogate this damage and inflammation”.
